Reference: paper PMC8148385, “A robust photoluminescence screening assay identifies uracil-DNA glycosylase inhibitors against prostate cancer” (Chemical Science, 2020)
Like-named read-outs stand apart in the source and are kept apart here.

Assays:
[1] = target: T1, uracil-DNA glycosylase (UDG) (Escherichia coli, UniProt P12295); experiment: TRES G-quadruplex/iridium probe UDG activity assay with commercial UDG; also fluorescence thermal shift (ca. […] °C); assay type: biochemical
T1 construct: gene ung
T1 sequence (P12295 2-229): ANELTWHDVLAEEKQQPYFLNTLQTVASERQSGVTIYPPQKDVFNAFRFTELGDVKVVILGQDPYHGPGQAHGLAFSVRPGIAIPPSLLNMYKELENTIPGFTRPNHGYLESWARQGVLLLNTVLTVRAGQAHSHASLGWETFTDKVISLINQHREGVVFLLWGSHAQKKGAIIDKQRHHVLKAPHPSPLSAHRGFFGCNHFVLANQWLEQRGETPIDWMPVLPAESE

[2] = target: T1, uracil-DNA glycosylase (UDG); experiment: as above; assay type: biochemical; remark: listed apart in the source
[3] = target: T2, uracil-DNA glycosylase (UDG) (Mus musculus, UniProt P97931); experiment: CETSA in RM-1 cell lysates; assay type: cell-based
T2 construct: gene Ung; endogenous UDG in RM-1 cell lysates
T2 sequence (P97931 whole entry): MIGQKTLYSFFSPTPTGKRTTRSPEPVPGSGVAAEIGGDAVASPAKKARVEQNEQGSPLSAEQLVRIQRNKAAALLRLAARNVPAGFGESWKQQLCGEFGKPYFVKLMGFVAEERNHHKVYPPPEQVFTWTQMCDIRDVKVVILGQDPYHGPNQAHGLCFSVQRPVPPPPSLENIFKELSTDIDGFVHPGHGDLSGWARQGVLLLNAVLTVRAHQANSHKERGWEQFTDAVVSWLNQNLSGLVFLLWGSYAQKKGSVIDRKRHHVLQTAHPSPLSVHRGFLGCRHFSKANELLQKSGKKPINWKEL

O=[N+]([O-])c1ccc(S(=O)(=O)N2/C(=C\c3ccccc3)C(O)(c3ccccc3)c3ccccc32)cc1 (stereo not drawn) [A8]
IC50 [1]: 1900 nM

O=C(N/N=C/c1ccc([N+](=O)[O-])o1)c1ccc(O)cc1 [S13, nifuroxazide]
IC50 [2]: ~4000 nM | CETSA in RM-1 cell lysates [3]: in the presence of compound A8 and S13, indicating that both of them directly engaged and stabilized UDG
